Measured values reported in patent publication US6642392B1 (priority 1997, dated 2003).
Like-named read-outs stand apart in the source and are kept apart here.

Key:
Assay type in all cases: in vivo
[1] = system: Eiysiphe graminis f. sp. tritici; assay: Test A: wheat powdery mildew, preventive spray on wheat seedlings; details: for Test A disease control rating (100 = 100% disease control, 0 = no disease control): wheat seedlings sprayed to run-off, inoculated the following day, rating relative to controls, unmarked compounds (standard test rate); for Test A disease control rating: wheat powdery mildew
Description: (§1) The resulting test suspensions were then used in the following tests. […]
The test suspension was sprayed to the point of run-off on wheat seedlings. The following day the seedlings were inoculated with a spore dust of Eiysiphe graminis f. sp. tritici, (the causal agent of wheat powdery mildew) and incubated in a growth chamber at 20° C. for 7 days, after which disease ratings were made.
(§2) Results for Tests A-E are given in Table A. In the table, a rating of 100 indicates 100% disease control and a rating of 0 indicates no disease control (relative to the controls). A dash (-) indicates no test results. ND indicates disease control not determined due to phytotoxicity.

Puccinia recondita = assay: Test B: wheat leaf rust, preventive spray on wheat seedlings; details: for Test B disease control rating (100 = 100% disease control, 0 = no disease control): wheat seedlings sprayed to run-off, inoculated the following day, rating relative to controls, unmarked compounds (standard test rate); for Test B disease control rating: wheat leaf rust
Description: as §1
The test suspension was sprayed to the point of run-off on wheat seedlings. The following day the seedlings were inoculated with a spore suspension of Puccinia recondita (the causal agent of wheat leaf rust) and incubated in a saturated atmosphere at 20° C. for 24 h, and then moved to a growth chamber at 20° C. for 6 days, after which disease ratings were made.
as §2

Pyricularia oryzae = details: for Test C disease control rating (100 = 100% disease control, 0 = no disease control): rice seedlings sprayed to run-off, inoculated the following day, rating relative to controls, unmarked compounds (standard test rate); for Test C disease control rating: rice blast
Phytophthora infestans = details: for Test D disease control rating (100 = 100% disease control, 0 = no disease control): tomato seedlings sprayed to run-off, inoculated the following day, rating relative to controls, unmarked compounds (standard test rate); for Test D disease control rating: tomato late blight
Botrytis cinerea = assay: Test E: gray mold, preventive spray on cucumber seedlings; details: for Test E disease control rating (100 = 100% disease control, 0 = no disease control): cucumber seedlings sprayed to run-off, inoculated the following day, rating relative to controls, unmarked compounds (standard test rate); for Test E disease control rating: gray mold on cucumber
Description: The resulting test suspensions were then used in the following tests. Spraying these 200 ppm test suspensions to the point of run-off on the test plants is the equivalent of a rate of 500 g/ha.
The test suspension was sprayed to the point of run-off on cucumber seedlings. The following day the seedlings were inoculated with a spore suspension of Botrytis cinerea (the causal agent of gray mold on many crops) and incubated in a saturated atmosphere at 20° C. for 48 h, and moved to a growth chamber at 20° C. for 5 days, after which disease ratings were made.
as §2

[2] = 100 = 100% disease control, 0 = no control relative to controls, unmarked entries (standard test concentration)
[3] = 100 = 100% disease control, 0 = no control, unmarked entries (standard test concentration)

SMILES | Test A disease control rating [1, 2] | Test B disease control rating (Puccinia recondita; [3]) | Test C disease control rating (Pyricularia oryzae; [3]) | Test D disease control rating (Phytophthora infestans; [3]) | Test E disease control rating (Botrytis cinerea; [3]) | also measured
CCC1(C(=O)NCC(C)=Cc2cc(Cl)ccc2Cl)C(C)C1(Cl)Cl (centres unmarked) [compound 270] |  |  |  |  |  | Test A disease control rating (100 = 100% disease control, 0 = no disease control) [1]: 77%; Test B disease control rating (100 = 100% disease control, 0 = no disease control) (Puccinia recondita): 0%; Test C disease control rating (100 = 100% disease control, 0 = no disease control) (Pyricularia oryzae): 91%; Test D disease control rating (100 = 100% disease control, 0 = no disease control) (Phytophthora infestans): 96%; Test E disease control rating (100 = 100% disease control, 0 = no disease control) (Botrytis cinerea): 0%
CC(COc1c(F)cccc1F)NC(=O)C(C#N)C(C)(C)C (mixture of isomers) [29b] | 0% | 0% | 100% | 23% | 0% | 
CCC1(C(=O)NCCCc2ccccc2)C(C)C1(Cl)Cl (centres unmarked) [compound 154] | 52% | 0% | 52% | 0% | 0% | 
CC(COc1c(C#N)cccc1C(F)(F)F)NC(=O)C(C#N)C(C)(C)C (mixture of isomers) [compound 48] | 0% | 0% | 91% | 0% | 0% | 
C[C@H](COc1c(F)cc(F)cc1F)NC(=O)C(C#N)C(C)(C)C (single isomer, unassigned) [189b] | 0% | 0% | 100% | 35% | 0% | 
CCc1ccccc1OCC(C)NC(=O)C1(CC)C(C)C1(Cl)Cl (centres unmarked) [97b] |  |  |  |  |  | Test A disease control rating ([1]; tested at 40 ppm): 71%; Test B disease control rating (Puccinia recondita; tested at 40 ppm): 0%; Test C disease control rating (Pyricularia oryzae; tested at 40 ppm): 53%; Test D disease control rating (Phytophthora infestans; tested at 40 ppm): 0%; Test E disease control rating (Botrytis cinerea; tested at 40 ppm): 0%
CCC1(C(=O)NC(C)COc2cc(F)c(F)cc2F)C(C)C1(Cl)Cl (centres unmarked) [compound 236] |  |  |  |  |  | Test A disease control rating (100 = 100% disease control, 0 = no disease control) [1]: 77%; Test B disease control rating (100 = 100% disease control, 0 = no disease control) (Puccinia recondita): 0%; Test C disease control rating (100 = 100% disease control, 0 = no disease control) (Pyricularia oryzae): 97%; Test D disease control rating (100 = 100% disease control, 0 = no disease control) (Phytophthora infestans): 0%; Test E disease control rating (100 = 100% disease control, 0 = no disease control) (Botrytis cinerea): 0%
CCC1(C(=O)NCCCn2c(C)cc(C)c2C#N)C(C)C1(Cl)Cl (centres unmarked) [compound 150] | 0% | 0% | 60% | 0% | 87% | 
CCC1(C(=O)NC(C)COc2ccc(F)cc2Cl)C(C)C1(Cl)Cl (centres unmarked) [compound 121] |  |  |  |  |  | Test A disease control rating ([1]; tested at 40 ppm): 71%; Test B disease control rating (Puccinia recondita; tested at 40 ppm): 0%; Test C disease control rating (Pyricularia oryzae; tested at 40 ppm): 53%; Test D disease control rating (Phytophthora infestans; tested at 40 ppm): 0%; Test E disease control rating (Botrytis cinerea; tested at 40 ppm): 0%
CCC1(C(=O)NC(C)CCc2ccccc2)C(C)C1(Cl)Cl (mixture of isomers) [compound 244] |  |  |  |  |  | Test A disease control rating (100 = 100% disease control, 0 = no disease control) [1]: 86%; Test B disease control rating (100 = 100% disease control, 0 = no disease control) (Puccinia recondita): 0%; Test C disease control rating (100 = 100% disease control, 0 = no disease control) (Pyricularia oryzae): 99%; Test D disease control rating (100 = 100% disease control, 0 = no disease control) (Phytophthora infestans): 74%; Test E disease control rating (100 = 100% disease control, 0 = no disease control) (Botrytis cinerea): 0%
CCCc1ccccc1OCC(C)NC(=O)C1(CC)C(C)C1(Cl)Cl (mixture of isomers) [98a] | 0% | 0% | 53% | 24% | 0% | 
CC(COc1cccc(F)c1C#N)NC(=O)C(C#N)C(C)(C)C (mixture of isomers) [compound 39] | 0% | 0% | 86% | 2% | 0% | 
CC(COc1cccc(Cl)c1)NC(=O)C(C#N)C(C)(C)C (single isomer, unassigned) [6c] | 0% | 0% | 97% | 9% | 0% | 
C[C@H](COc1ccc(F)cc1F)NC(=O)C(C#N)C(C)(C)C (single isomer, unassigned) [27b] | 91% | 0% | 100% | 0% | 0% | 
CCC1(C(=O)NC(C)COc2ccccc2C)C(C)C1(Cl)Cl (mixture of isomers) [compound 95] |  |  |  |  |  | Test A disease control rating ([1]; tested at 40 ppm): 52%; Test B disease control rating (Puccinia recondita; tested at 40 ppm): 86%; Test C disease control rating (Pyricularia oryzae; tested at 40 ppm): 94%; Test D disease control rating (Phytophthora infestans; tested at 40 ppm): 0%; Test E disease control rating (Botrytis cinerea; tested at 40 ppm): 0%
CCC1(C(=O)NC(C)COc2ccccc2F)C(C)C1(Cl)Cl (mixture of isomers) [78a] | 0% | 93% | 90% | 0% | 74% | 
CCC1(C(=O)NC(C)COc2c(Cl)cc(Cl)cc2Cl)C(C)C1(Cl)Cl (centres unmarked) [compound 118] |  |  |  |  |  | Test A disease control rating ([1]; tested at 40 ppm): 83%; Test B disease control rating (Puccinia recondita; tested at 40 ppm): 0%; Test C disease control rating (Pyricularia oryzae; tested at 40 ppm): 0%; Test D disease control rating (Phytophthora infestans; tested at 40 ppm): 0%; Test E disease control rating (Botrytis cinerea; tested at 40 ppm): 0%
CC(COc1c(F)ccc(F)c1F)NC(=O)C(C#N)C(C)(C)C (mixture of isomers) [compound 186] | 0% | 0% | 100% | 0% | 45% | 
CCC1(C(=O)NCC=C(C)c2cc(Cl)ccc2Cl)C(C)C1(Cl)Cl (centres unmarked) [compound 271] |  |  |  |  |  | Test A disease control rating (100 = 100% disease control, 0 = no disease control) [1]: 77%; Test B disease control rating (100 = 100% disease control, 0 = no disease control) (Puccinia recondita): 0%; Test C disease control rating (100 = 100% disease control, 0 = no disease control) (Pyricularia oryzae): 94%; Test D disease control rating (100 = 100% disease control, 0 = no disease control) (Phytophthora infestans): 96%; Test E disease control rating (100 = 100% disease control, 0 = no disease control) (Botrytis cinerea): 0%
C[C@H](COc1ccc(F)cc1F)NC(=O)C(C#N)C(C)(C)C (single isomer, unassigned) [27a] | 38% | 0% | 100% | 81% | 0% | 
CC(COc1c(C#N)cccc1C(F)F)NC(=O)C(C#N)C(C)(C)C (mixture of isomers) [compound 206] | 0% | 0% | 74% | 0% | 0% | 
CCC1(C(=O)NC(C)COc2c(Cl)cccc2Cl)C(C)C1(Cl)Cl (centres unmarked) [compound 114] |  |  |  |  |  | Test A disease control rating ([1]; tested at 40 ppm): 83%; Test B disease control rating (Puccinia recondita; tested at 40 ppm): 0%; Test C disease control rating (Pyricularia oryzae; tested at 40 ppm): 0%; Test D disease control rating (Phytophthora infestans; tested at 40 ppm): 0%; Test E disease control rating (Botrytis cinerea; tested at 40 ppm): 0%
